SMILES strings stand for the structures. Where a SMILES comes first, the peptide text is derived from it. Bridges are numbered along the chain shown (N, C = ends). [ ]: non-standard residue; d: D form. The star is where a group is joined. ξ: configuration not given here. Phe(4-COOH) = N[C@@H](Cc1ccc(C(=O)O)cc1)C(=O)O; Bip = N[C@@H](Cc1ccc(-c2ccccc2)cc1)C(=O)O; Phe(3-Me) = Cc1cccc(C[C@H](N)C(=O)O)c1; Cha = N[C@@H](CC1CCCCC1)C(=O)O; Cit = NC(=O)NCCC[C@H](N)C(=O)O; Thr(3ξ) = CC(O)[C@H](N)C(=O)O; Carboxymethyl = O=C(O)C*; NMeA = CN[C@@H](C)C(=O)O; Aun = NCCCCCCCCCCC(=O)O; Dab = NCC[C@H](N)C(=O)O; AEEA = NCCOCCOCC(=O)O

The target of the assay is T1, PD-1/PD-L1 interaction (PE-labeled human PD-L1-Ig binding to Jurkat cell line over-expressing human PD-1) (Homo sapiens, UniProt Q15116).
T1 construct: expressed in transfected cells; host or cells: Jurkat
T1 sequence (Q15116 25-288): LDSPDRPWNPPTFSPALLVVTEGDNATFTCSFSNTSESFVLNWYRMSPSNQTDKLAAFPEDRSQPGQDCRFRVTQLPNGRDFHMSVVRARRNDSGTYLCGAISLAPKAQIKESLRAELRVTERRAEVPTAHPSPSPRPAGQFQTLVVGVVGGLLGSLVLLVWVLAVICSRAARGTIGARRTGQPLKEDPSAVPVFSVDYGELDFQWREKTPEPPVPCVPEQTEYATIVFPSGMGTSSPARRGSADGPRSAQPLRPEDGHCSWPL
The experiment in a line: Jurkat-PD-1 Cell Binding High-Content Screening Assay (CBA). The settings on record: Jurkat-hPD-1 cells, PE-labeled PD-L1-Ig 20 nM final; read-out: Jurkat HPD1 PDL1 IC50. The procedure, abridged: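 Compound is added first to the PD-1-expressing Jurkat cells and held 2 h at 37 °C in serum-containing DMEM. The fluorescent PD-L1 fusion follows at 20 nM final for 1 h. Fixed, Hoechst-stained cells are then imaged for bound label.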
In general, IC50 refers to the concentration that gives 50% inhibition. `CC(C)C[C@H]1NC(=O)[C@H](C)N(C)C(=O)[C@H](C(C)C)NC(=O)[C@H](Cc2ccc(-c3ccccc3)cc2)NC(=O)[C@H](C(C)C)NC(=O)[C@H](Cc2c[nH]c3ccccc23)NC(=O)[C@H](CC(=O)O)NC(=O)[C@H](Cc2ccc(C(=O)O)cc2)NC(=O)[C@H](Cc2ccc(OCC(=O)O)cc2)NC(=O)CSC[C@@H](C(=O)N[C@@H](CCN)C(=O)NCCCCCCCCCCC(=O)O)NC(=O)[C@H](CCCNC(N)=O)NC(=O)[C@H](C(C)C)NC(=O)[C@H](CC2CCCCC2)NC(=O)[C@H](CCN)NC1=O` [Example 2290] ({CH2CO}-Y(Carboxymethyl)[Phe(4-COOH)]DWV[Bip]V[NMeA][dL][Dab][Cha]V[Cit]C[Dab][Aun]-OH; thioether N-14): the IC50 was 18 nM.
Next, `CC(C)C[C@@H]1NC(=O)[C@H](Cc2c[nH]c3ccccc23)NC(=O)[C@H](CC(=O)O)NC(=O)[C@H](Cc2ccc(OCC(=O)O)cc2)NC(=O)[C@H](C(C)O)NC(=O)CSC[C@@H](C(=O)NCCOCCOCC(=O)NCCCCCCCCCCC(=O)O)NC(=O)[C@H](CCC(=O)O)NC(=O)[C@H](C(C)C)NC(=O)[C@H](CC2CCCCC2)NC(=O)[C@H](CCN)NC(=O)[C@@H](CC(C)C)NC(=O)[C@H](C)N(C)C(=O)[C@H](C(C)C)NC(=O)[C@H](Cc2ccc(-c3ccccc3)cc2)NC1=O` (stereo partly drawn) [Example 2291] ({CH2CO}-[Thr(3ξ)]Y(Carboxymethyl)DWL[Bip]V[NMeA][dL][Dab][Cha]VEC[AEEA][Aun]-OH; thioether N-14): 28.9 nM; `Cc1cccc(C[C@@H]2NC(=O)[C@H](CC(=O)O)NC(=O)[C@H](Cc3ccc(C(=O)O)cc3)NC(=O)[C@H](Cc3ccc(OCC(=O)O)cc3)NC(=O)CSC[C@@H](C(=O)N[C@@H](CCN)C(=O)NCCCCCCCCCCC(=O)O)NC(=O)[C@H](CCC(=O)O)NC(=O)[C@H](C(C)C)NC(=O)[C@H](CC3CCCCC3)NC(=O)[C@H](CCN)NC(=O)[C@@H](CC(C)C)NC(=O)[C@H](C)N(C)C(=O)[C@H](C(C)C)NC(=O)[C@H](Cc3ccc(-c4ccccc4)cc3)NC(=O)[C@H](CC(C)C)NC2=O)c1` [Example 2293] ({CH2CO}-Y(Carboxymethyl)[Phe(4-COOH)]D[Phe(3-Me)]L[Bip]V[NMeA][dL][Dab][Cha]VEC[Dab][Aun]-OH; thioether N-14): 20.2 nM.
Regarding `Cc1cccc(C[C@@H]2NC(=O)[C@H](CC(=O)O)NC(=O)[C@H](Cc3ccc(C(=O)O)cc3)NC(=O)[C@H](Cc3ccc(OCC(=O)O)cc3)NC(=O)CSC[C@@H](C(=O)N[C@@H](CCN)C(=O)NCCCCCCCCCCC(=O)O)NC(=O)[C@H](CCCNC(N)=O)NC(=O)[C@H](C(C)C)NC(=O)[C@H](CC3CCCCC3)NC(=O)[C@H](CCN)NC(=O)[C@@H](CC(C)C)NC(=O)[C@H](C)N(C)C(=O)[C@H](C(C)C)NC(=O)[C@H](Cc3ccc(-c4ccccc4)cc3)NC(=O)[C@H](CC(C)C)NC2=O)c1` [Example 2294] ({CH2CO}-Y(Carboxymethyl)[Phe(4-COOH)]D[Phe(3-Me)]L[Bip]V[NMeA][dL][Dab][Cha]V[Cit]C[Dab][Aun]-OH; thioether N-14), the half-inhibitory concentration (IC50) came to 19.9 nM.
For the compound `CC(=O)NCCCC[C@@H]1NC(=O)[C@H](Cc2ccc(-c3ccccc3)cc2)NC(=O)[C@H](C(C)C)NC(=O)[C@H](Cc2cccc(C)c2)NC(=O)[C@H](CC(=O)O)NC(=O)[C@H](Cc2ccc(C(=O)O)cc2)NC(=O)[C@H](Cc2ccc(OCC(=O)O)cc2)NC(=O)CSC[C@@H](C(=O)NCCOCCOCC(=O)NCCCCCCCCCCC(=O)O)NC(=O)[C@H](CCCNC(N)=O)NC(=O)[C@H](C(C)C)NC(=O)[C@H](CC2CCCCC2)NC(=O)[C@H](CCN)NC(=O)[C@@H](CC(C)C)NC(=O)[C@H](C)N(C)C1=O` [Example 2295] ({CH2CO}-Y(Carboxymethyl)[Phe(4-COOH)]D[Phe(3-Me)]V[Bip]K(Ac)[NMeA][dL][Dab][Cha]V[Cit]C[AEEA][Aun]-OH; thioether N-14), the 50% inhibitory concentration (IC50) was 10.3 nM.

The values are drawn from patent publication US20260070945A1, “MACROCYCLIC IMMUNOMODULATORS” (Bristol-Myers Squibb Company, priority 2022, published 2026).
